Measured values from US9113629B2, “4-amino-6-(4-substituted-phenyl)-picolinates and 6-amino-2-(4-substituted-phenyl)-pyrimidine-4-carboxylates and their use as herbicides” (DOW AGROSCIENCES LLC, priority 2013, dated 2015).

system: Key Grass and Sedge Weeds as well as Grass Crops; assay: Post-emergent Test II herbicidal activity (Table 6); format: in vivo; details: post-emergence, 336 h, ZEAMX: maize, corn (Zea mays), crop, 140 g ai/ha, read-out: Visual Growth Reduction (%) 14 Days After Application, ZEAMX
Procedure, shortened: (§1)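 Greenhouse post-emergent assay: seedlings (first/second true leaf) in Metro-Mix 360 were sprayed at 187 L/ha at a top rate plus twofold dilutions down to 1/16×; solvent-blank controls were included. Percent visual injury was read at 14 d.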

| SMILES | pest or weed control at 140 g/ha [%] |
| --- | --- |
| C#Cc1ccc(-c2nc(N)c(OC)c(C(=O)OC)n2)c(F)c1 [Compound 59] | 0 to 29 |

system: not given; assay: not given; details: not given

| melting point [°C] | SMILES |
| --- | --- |
| 203 to 205 | C#Cc1ccc(-c2nc(N)c(OC)c(C(=O)OC)n2)c(F)c1 [Compound 59] |

system: Key Broadleaf Weed and Crop Species; assay: Post-emergent Test II herbicidal activity (Table 5); format: in vivo; details: post-emergence, 336 h; ABUTH: velvetleaf (Abutilon theophrasti); application rate 70 g ai/ha; 14 days after application; read-out: Visual Growth Reduction (%) 14 Days After Application, ABUTH
Procedure, shortened: as §1

| SMILES | pest or weed control at 70 g/ha [%] |
| --- | --- |
| C#Cc1ccc(-c2nc(N)c(OC)c(C(=O)OC)n2)c(F)c1 [Compound 59] | 0 to 29 |

same assay, conditions: post-emergence, 336 h; ABUTH: velvetleaf (Abutilon theophrasti); application rate 140 g ai/ha; 14 days after application; read-out: Visual Growth Reduction (%) 14 Days After Application, ABUTH

| SMILES | pest or weed control at 140 g/ha [%] |
| --- | --- |
| C#Cc1ccc(-c2nc(N)c(OC)c(C(=O)OC)n2)c(F)c1 [Compound 59] | 0 to 29 |

same assay, conditions: post-emergence, 336 h; AMARE: redroot pigweed (Amaranthus retroflexus); application rate 70 g ai/ha; 14 days after application; read-out: Visual Growth Reduction (%) 14 Days After Application, AMARE

| SMILES | pest or weed control at 70 g/ha [%] |
| --- | --- |
| C#Cc1ccc(-c2nc(N)c(OC)c(C(=O)OC)n2)c(F)c1 [Compound 59] | 0 to 29 |

same assay, conditions: post-emergence, 336 h; AMARE: redroot pigweed (Amaranthus retroflexus); application rate 140 g ai/ha; 14 days after application; read-out: Visual Growth Reduction (%) 14 Days After Application, AMARE

| SMILES | pest or weed control at 140 g/ha [%] |
| --- | --- |
| C#Cc1ccc(-c2nc(N)c(OC)c(C(=O)OC)n2)c(F)c1 [Compound 59] | 0 to 29 |

same assay, conditions: post-emergence, 336 h; BRSNN: oilseed-rape, canola (Brassica napus); application rate 70 g ai/ha; 14 days after application; read-out: Visual Growth Reduction (%) 14 Days After Application, BRSNN

| SMILES | pest or weed control at 70 g/ha [%] |
| --- | --- |
| C#Cc1ccc(-c2nc(N)c(OC)c(C(=O)OC)n2)c(F)c1 [Compound 59] | 30 to 44 |

same assay, conditions: post-emergence, 336 h; BRSNN: oilseed-rape, canola (Brassica napus); application rate 140 g ai/ha; 14 days after application; read-out: Visual Growth Reduction (%) 14 Days After Application, BRSNN

| SMILES | pest or weed control at 140 g/ha [%] |
| --- | --- |
| C#Cc1ccc(-c2nc(N)c(OC)c(C(=O)OC)n2)c(F)c1 [Compound 59] | 45 to 59 |

same assay, conditions: post-emergence, 336 h; CHEAL: lambsquarters (Chenopodium album); application rate 70 g ai/ha; 14 days after application; read-out: Visual Growth Reduction (%) 14 Days After Application, CHEAL

| SMILES | pest or weed control at 70 g/ha [%] |
| --- | --- |
| C#Cc1ccc(-c2nc(N)c(OC)c(C(=O)OC)n2)c(F)c1 [Compound 59] | 0 to 29 |

same assay, conditions: post-emergence, 336 h; CHEAL: lambsquarters (Chenopodium album); application rate 140 g ai/ha; 14 days after application; read-out: Visual Growth Reduction (%) 14 Days After Application, CHEAL

| SMILES | pest or weed control at 140 g/ha [%] |
| --- | --- |
| C#Cc1ccc(-c2nc(N)c(OC)c(C(=O)OC)n2)c(F)c1 [Compound 59] | 60 to 74 |

same assay, conditions: post-emergence, 336 h; EPHHL: wild poinsettia (Euphorbia heterophylla); application rate 70 g ai/ha; 14 days after application; read-out: Visual Growth Reduction (%) 14 Days After Application, EPHHL

| SMILES | pest or weed control at 70 g/ha [%] |
| --- | --- |
| C#Cc1ccc(-c2nc(N)c(OC)c(C(=O)OC)n2)c(F)c1 [Compound 59] | 0 to 29 |

same assay, conditions: post-emergence, 336 h; EPHHL: wild poinsettia (Euphorbia heterophylla); application rate 140 g ai/ha; 14 days after application; read-out: Visual Growth Reduction (%) 14 Days After Application, EPHHL

| SMILES | pest or weed control at 140 g/ha [%] |
| --- | --- |
| C#Cc1ccc(-c2nc(N)c(OC)c(C(=O)OC)n2)c(F)c1 [Compound 59] | 0 to 29 |

same assay, conditions: post-emergence, 336 h; HELAN: sunflower (Helianthus annuus); application rate 70 g ai/ha; 14 days after application; read-out: Visual Growth Reduction (%) 14 Days After Application, HELAN

| SMILES | pest or weed control at 70 g/ha [%] |
| --- | --- |
| C#Cc1ccc(-c2nc(N)c(OC)c(C(=O)OC)n2)c(F)c1 [Compound 59] | 60 to 74 |

same assay, conditions: post-emergence, 336 h; HELAN: sunflower (Helianthus annuus); application rate 140 g ai/ha; 14 days after application; read-out: Visual Growth Reduction (%) 14 Days After Application, HELAN

| SMILES | pest or weed control at 140 g/ha [%] |
| --- | --- |
| C#Cc1ccc(-c2nc(N)c(OC)c(C(=O)OC)n2)c(F)c1 [Compound 59] | 60 to 74 |

same assay, conditions: post-emergence, 336 h; VIOTR: wild pansy (Viola tricolor); application rate 70 g ai/ha; 14 days after application; read-out: Visual Growth Reduction (%) 14 Days After Application, VIOTR

| SMILES | pest or weed control at 70 g/ha [%] |
| --- | --- |
| C#Cc1ccc(-c2nc(N)c(OC)c(C(=O)OC)n2)c(F)c1 [Compound 59] | 0 to 29 |

same assay, conditions: post-emergence, 336 h; VIOTR: wild pansy (Viola tricolor); application rate 140 g ai/ha; 14 days after application; read-out: Visual Growth Reduction (%) 14 Days After Application, VIOTR

| SMILES | pest or weed control at 140 g/ha [%] |
| --- | --- |
| C#Cc1ccc(-c2nc(N)c(OC)c(C(=O)OC)n2)c(F)c1 [Compound 59] | 0 to 29 |
